{
  "source": "patent US20260007728A1",
  "about": "“COMBINATION THERAPIES INVOLVING L-ASPARAGINASE” (Jazz Pharmaceuticals Ireland Ltd., priority 2022, published 2026)",
  "key": {"[1]": {"system": "BCL2 expression in triple hit lymphoma line WSU-DLCL2", "experiment": "qPCR gene expression after compound treatment", "format": "cell-based", "method": "Cell Culture: Cell culture medium: RPMI 1640 medium (#2198761, Thermo Fisher) supplemented with 10% fetal calf serum (#S00AZ, BioWest) and 1% pen/strep (#15140-122, Thermo Fisher). At day-1, 900 μl cell suspension was seeded in 24-well plates (#662165, Greiner Bio-One) at a density of 128,000 cells/well. At day 0, 100 μl compound was added in three different concentrations to reach a final concentration of 0.316×IC50, 1×IC50, and 3.16×IC50 (unless indicated otherwise). To the control samples, 100 μl 20 mM HEPES+3.16% DMSO was added instead of compound. When the compound is prepared in HEPES instead of DMSO, 20 mM HEPES without DMSO was added to the cells. The cells were collected at 6 hours, 24 hours and 48 hours after addition of the compound and were transferred to a 96-well deep well plate and centrifuged for 5 min at 340×g. Prior to the collection of the cells microscopic pictures were taken from the untreated (control) cells. After removing the medium, 200 μl RNA protect (#76526, Qiagen) was added to the cell pellet and the cells were stored at −80° C.\nRNA isolation: Total RNA was isolated with the SV96 Total RNA Isolation System kit (#Z3505, Promega) according to manufacturer's instructions. The procedure includes a ‘RNAse free DNAse’ gDNA removal step.\nDetermining the RNA concentration: RNA concentrations were determined with the RiboGreen (#R11490, Thermo Fisher) kit according to manufacturer's instructions.\ncDNA synthesis: RNA was reverse transcribed into cDNA using the Quantitect Reverse Transcript Kit (#205313, Qiagen) according to manufacturer's instructions. This procedure includes a second ‘RNAse free DNAse’ gDNA removal step, ensuring the complete removal of gDNA from the samples. For each time point (6 h, 24 h, or 48 h) identical volumes of RNA were used for cDNA synthesis. After synthesis, cDNA is diluted with nuclease free water to obtain approximately similar cDNA concentrations per sample.\nqPCR: 1) 50° C. for 10 min (Uracil-DNA glycosylase ([…]) step to remove all potential traces of amplicon DNA from previous qPCRs); 2) 5 min UDP inactivation/denaturation at 95° C.; 3) 40 cycles of 10s denaturation at 95° C., 20s annealing at 60° C., and 30s extension at 72° C.; and 4) Dissociation curve to determine the melting temperature of the qPCR amplicon.\nqPCR Data Analysis: Cq and Tm raw data values are determined by the BioRad CFX manager software from the PCR machine. For every PCR sample that produced a Cq value the corresponding melting temperature of the PCR amplicon (Tm) was checked to identify samples that generated dual or a specific PCR products. A PCR product is regarded a specific when its Tm is >0.5° C. different from that the Tm of the specific PCR amplicon, in this case the Cq value is removed and not used for further data analysis. Cq values were than normalized by subtracting the (mean) Cq value of the two housekeeping genes (ACTB & RPS18) from the Cq value of the gene of interest. The normalized value is called DCq. The Cq difference between sample and the control (DDCq) was calculated by subtracting DCq control from DCq sample. The fold difference in expression between the control (no compound) and the compound treated sample is than calculated according the 2^-DDCq method."}, "[2]": {"system": "cell lines with low and high ASNS expression", "experiment": "Bliss synergy of pathway inhibitors with JZP-458 (cytotoxicity readout)", "format": "cell-based", "conditions": "in combination with JZP-458", "method": "Combination study BLISS matrix-Bliss Assay Protocol: Cells were plated in 384-well plates in 45 μl cell culture medium at a density of, that is, at numbers of cells per well as indicated in FIG. 24. For each cell line, the optimal cell density was determined a priori to obtain an optimal assay window. Plated cells were incubated in a humidified incubator with 5% CO2 at 37° C. 24 hours post-plating, 5 μl of compound dilution was added to each well and plates were further incubated for another 72 hours after which 25 μl of ATPlite 1 Step (PerkinElmer, Groningen, The Netherlands) solution was added to each well. Luminescence was recorded on an Envision multimode reader (PerkinElmer, Waltham, MA, U.S.A.). For determination of Bliss independence scores, two drugs were added in increasing concentrations in a 6×6 matrix. […] The percent viability for each drug either alone or in combination was determined relative to control samples and the Bliss independence scores for each combination were determined as described (Liu, Q., et al., Stat Biopharm. Res. 10: 112; 2018). […]"}, "[3]": {"experiment": "Aggregation of asparaginase batches", "format": "physicochemical", "conditions": "product batches", "text": "In some embodiments, the recombinant L-asparaginase of the disclosure has greater purity than other L-asparaginases. […] In some embodiments, the amount of aggregation of the recombinant L-asparaginase is less than 10%, 9%, 8%, 7%, 6%, 5%, 4%, 3%, 2%, 1%, 0.5%, 0.25%, 0.2%, 0.1%, or 0.01%. In some embodiments, the amount of aggregation seen in compositions containing the recombinant L-asparaginase is less than 1-10%. In some embodiments, the amount of aggregation seen in compositions containing the recombinant L-asparaginase is less than 10%. In some embodiments, the amount of aggregation of the recombinant L-asparaginase is less than 9%. In some embodiments, the amount of aggregation of the recombinant L-asparaginase is less than 8%. In some embodiments, the amount of aggregation of the recombinant L-asparaginase is less than 7%. In some embodiments, the amount of aggregation of the recombinant L-asparaginase is less than 6%. In some embodiments, the amount of aggregation of the recombinant L-asparaginase is less than 5%. In some embodiments, the amount of aggregation of the recombinant L-asparaginase is less than 4%. In some embodiments, the amount of aggregation of the recombinant L-asparaginase is less than 3%. In some embodiments, the amount of aggregation of the recombinant L-asparaginase is less than 2%. […]"}, "[4]": {"experiment": "Half life of asparaginases", "conditions": "in vivo"}, "[5]": {"experiment": "In vivo tolerability study in naïve SCID mice", "conditions": "150 U/kg in combination with venetoclax and R-CHOP constituents", "text": "Sensitivity to asparaginase and 11 chemotherapeutic agents (carfilzomib, doxorubicin, rapamycin, ibrutinib, cyclophosphamide, prednisolone, metformin, venetoclax, navitoclax, rituximab and vincristine) determined in 8 lymphoma lines, including diffuse large B-cell and Burkitt lymphomas. The investigated lymphoma lines are sensitive to asparagine depletion within the clinically achievable range. Expression of decisive genes (BCL2, BCL6, BCL2L1, MYC, ASNS) determined in 8 lymphoma lines (FIGS. 11 and 12). Increased expression of BCL2 served as marker for resistance of ibrutinib and rapamycin in triple hit lymphoma (FIGS. 11 and 12). Increased expression of ASNS served as marker for resistance of carfilzomib and asparaginase in Burkitt lymphoma (FIGS. 11 and 12). Identified combination agents that enhanced asparaginase activity in vitro include synergy of JZP458 and rituximab, venetoclax and ibrutinib in lymphoma lines (DLBCL) (see FIG. 13, FIG. 15, and FIG. 17). […] In vivo tolerability study of long acting Erwinia Asparaginase."}},
  "data": [
    {"molecule": "C=CC(=O)N1CCC[C@@H](n2nc(-c3ccc(Oc4ccccc4)cc3)c3c(N)ncnc32)C1", "note": "[ibrutinib]", "values": [
      {"measurement": "increase of BCL2 expression", "setting": "[1]", "result": 1.25, "unit": "fold"}
    ]},
    {"molecule": "CO[C@H]1C[C@@H]2CC[C@@H](C)[C@@](O)(O2)C(=O)C(=O)N2CCCC[C@H]2C(=O)O[C@H]([C@H](C)C[C@@H]2CC[C@@H](OCCO)[C@H](OC)C2)CC(=O)[C@H](C)/C=C(\\C)[C@@H](O)[C@@H](OC)C(=O)[C@H](C)C[C@H](C)/C=C/C=C/C=C/1C", "note": "[everolimus]", "values": [
      {"measurement": "Bliss sum score compared with PI3K inhibitors and MEK inhibitors", "setting": "[2]", "result": "increased"}
    ]},
    {"molecule": "CO[C@H]1C[C@@H]2CC[C@@H](C)[C@@](O)(O2)C(=O)C(=O)N2CCCC[C@H]2C(=O)O[C@H]([C@H](C)C[C@@H]2CC[C@@H](O)[C@H](OC)C2)CC(=O)[C@H](C)/C=C(\\C)[C@@H](O)[C@@H](OC)C(=O)[C@H](C)C[C@H](C)/C=C/C=C/C=C/1C", "note": "[rapamycin]", "values": [
      {"measurement": "increase of BCL2 expression", "setting": "[1]", "result": 1, "unit": "fold"}
    ]},
    {"molecule": "Erwinase: Erwinia chrysanthemi L-asparaginase type II product commercially approved for ALL (protein, UniProt P06608 22-348, looked up) L-asparaginase: ADKLPNIVILATGGTIAGSAATGTQTTGYKAGALGVDTLINAVPEVKKLANVKGEQFSNMASENMTGDVVLKLSQRVNELLARDDVDGVVITHGTDTVEESAYFLHLTVKSDKPVVFVAAMRPATAISADGPMNLLEAVRVAGDKQSRGRGVMVVLNDRIGSARYITKTNASTLDTFKANEEGYLGVIIGNRIYYQNRIDKLHTTRSVFDVRGLTSLPKVDILYGYQDDPEYLYDAAIQHGVKGIVYAGMGAGSVSVRGIAGMRKAMEKGVVVIRSTRTGNGIVPPDEELPGLVSDSLNPAHARILLMLALTRTSDPKVIQEYFHTY", "values": [
      {"measurement": "aggregation", "setting": "[3]", "result": "about 6%"}
    ]},
    {"molecule": "JZP341: pasylated L-asparaginase; long acting Erwinia asparaginase (protein, UniProt P06608 22-348, looked up, PASylated) L-asparaginase: ADKLPNIVILATGGTIAGSAATGTQTTGYKAGALGVDTLINAVPEVKKLANVKGEQFSNMASENMTGDVVLKLSQRVNELLARDDVDGVVITHGTDTVEESAYFLHLTVKSDKPVVFVAAMRPATAISADGPMNLLEAVRVAGDKQSRGRGVMVVLNDRIGSARYITKTNASTLDTFKANEEGYLGVIIGNRIYYQNRIDKLHTTRSVFDVRGLTSLPKVDILYGYQDDPEYLYDAAIQHGVKGIVYAGMGAGSVSVRGIAGMRKAMEKGVVVIRSTRTGNGIVPPDEELPGLVSDSLNPAHARILLMLALTRTSDPKVIQEYFHTY", "values": [
      {"measurement": "half life t½", "setting": "[4]", "result": "~16", "unit": "h"},
      {"measurement": "tolerability", "setting": "[5]", "result": "tolerated"}
    ]}
  ]
}
